pEC50, pIC50, pKi: −log10 of the molar value.
Legend:
[1] = target: T1, 5-hydroxytryptamine receptor 6 (Homo sapiens, UniProt P50406); assay: Displacement of [3H]LSD from cloned human 5-hydroxytryptamine 6 receptor expressed in HeLa cells; type: cell-based
[2] = target: T1, 5-hydroxytryptamine receptor 6; assay: Maximum effective concentration for cAMP production in HeLa cells expressing human 5-HT6 receptors; type: functional, cell-based
[3] = target: T1, 5-hydroxytryptamine receptor 6; assay: Effective concentration for cAMP production in HeLa cells expressing human 5-HT6 receptors; type: functional, cell-based
[4] = target: T1, 5-hydroxytryptamine receptor 6; assay: Maximum inhibition of cAMP production in HeLa cells expressing human 5-HT6 receptors; type: functional, cell-based
[5] = target: T1, 5-hydroxytryptamine receptor 6; assay: Inhibition of cAMP production in HeLa cells expressing human 5-HT6 receptor; type: functional, cell-based

T1 sequence (P50406 whole entry): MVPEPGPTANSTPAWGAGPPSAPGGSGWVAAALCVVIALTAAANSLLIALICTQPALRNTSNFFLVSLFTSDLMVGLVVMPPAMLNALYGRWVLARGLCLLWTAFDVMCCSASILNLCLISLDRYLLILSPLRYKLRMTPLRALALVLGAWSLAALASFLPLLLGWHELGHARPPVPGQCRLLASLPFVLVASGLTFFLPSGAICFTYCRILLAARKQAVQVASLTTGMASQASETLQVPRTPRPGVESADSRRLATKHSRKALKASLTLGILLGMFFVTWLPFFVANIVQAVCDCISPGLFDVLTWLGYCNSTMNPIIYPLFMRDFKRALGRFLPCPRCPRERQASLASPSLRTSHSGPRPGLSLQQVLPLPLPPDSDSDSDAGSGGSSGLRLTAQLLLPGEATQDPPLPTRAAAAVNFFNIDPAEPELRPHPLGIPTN

Row | Emax [2] [%] | pEC50 [3] | Compound | pKi [1] | Imax [4] [%] | pIC50 [5]
1 | 62 | 6.46 | O=S(=O)(c1ccc(F)cc1)n1cc(C2=CCCNC2)c2ccccc21 | 7.98 |  | 
2 | 41 | 6.80 | O=S(=O)(c1ccccc1)n1cc(C2=CCCNC2)c2ccccc21 | 8.34 |  | 
3 | 51.5 | 6.57 | O=S(=O)(c1cccc(F)c1)n1cc(C2=CCCNC2)c2ccccc21 | 8.07 |  | 
4 | 50 | 7.05 | Cc1nn(C)c(Cl)c1S(=O)(=O)n1cc(C2=CCCNC2)c2ccccc21 | 8.10 |  | 
5 | 52 | 7.29 | O=S(=O)(c1ccccc1F)n1cc(C2=CCCNC2)c2ccccc21 | 8.04 |  | 

More lines, now with the values behind:

Row | Compound | Emax [2] [%] | pEC50 [3] | pKi [1] | Imax [4] [%] | pIC50 [5]
6 | O=S(=O)(c1ccccc1)n1c2c(c3ccccc31)CCNC2 |  |  | 6.60 |  | 
7 | O=S(=O)(c1ccc(Cl)s1)n1cc(C2CCCNC2)c2ccccc21 (stereo not given) | 93 | 7.23 |  |  | 
8 | COc1ccc(S(=O)(=O)n2cc(C[C@@H]3CCCN3C)c3ccccc32)cc1OC |  |  | 8.10 | 100 | 9.10
9 | CN1CCC[C@H]1Cc1cn(S(=O)(=O)c2ccccc2Br)c2ccccc12 |  |  | 8.15 | 87.5 | 7.12
10 | Cc1ccc(S(=O)(=O)n2cc(C[C@@H]3CCCN3C)c3ccccc32)cc1 |  |  | 8.30 | 78.5 | 7.25
11 | CN1CCC[C@H]1Cc1cn(S(=O)(=O)c2ccc(Br)s2)c2ccccc12 |  |  | 8.52 | 96 | 6.95
12 | Cc1c(S(=O)(=O)n2cc(C3CCCNC3)c3ccccc32)sc2ccc(Cl)cc12 (stereo not given) |  |  | 7.36 |  | 
13 | O=S(=O)(c1ccc(Cl)s1)n1cc(C2=CCCNC2)c2ccccc21 |  |  | 7.64 |  | 
14 | O=S(=O)(c1ccc(F)c(F)c1)n1cc(C2CCCNC2)c2ccccc21 (stereo not given) | 60.5 | 7.18 |  |  | 
15 | O=S(=O)(c1cccc(Cl)c1)n1cc(C2=CCCNC2)c2ccccc21 |  |  | 7.85 |  | 
16 | Cc1ccc(S(=O)(=O)n2cc(C3CCN(Cc4ccccc4)C3)c3ccccc32)cc1 (stereo not given) |  |  |  | 72 | 6.91
17 | O=S(=O)(c1cccs1)n1cc(C2CCCNC2)c2ccccc21 (stereo not given) |  |  | 8.01 |  | 
18 | O=S(=O)(c1cccc(Cl)c1Cl)n1cc(C2=CCCNC2)c2ccccc21 |  |  | 7.70 |  | 
19 | CN1CCC[C@H]1Cc1cn(S(=O)(=O)c2cccc(Cl)c2)c2ccccc12 |  |  | 8.40 | 77 | 7.02
20 | O=S(=O)(c1ccccc1Br)n1cc(C2CCN(Cc3ccccc3)C2)c2ccccc21 (stereo not given) |  |  |  | 62 | 7.68
21 | CN1CCC[C@H]1Cc1cn(S(=O)(=O)c2ccc(Cl)c(Cl)c2)c2ccccc12 |  |  | 7.92 | 86.5 | 8.14
22 | Cc1c(S(=O)(=O)n2cc(C[C@H]3CCCN3)c3ccccc32)sc2ccc(Cl)cc12 |  |  | 6.55 |  | 
23 | Cc1ccc(S(=O)(=O)n2cc(C[C@@H]3CCCN3)c3ccccc32)cc1 |  |  | 7.48 |  | 
24 | COc1ccc(S(=O)(=O)n2cc(C3=CCCNC3)c3ccccc32)cc1 |  |  | 7.80 |  | 
25 | CN1CCC[C@H]1Cc1cn(S(=O)(=O)c2ccc(I)cc2)c2ccccc12 |  |  | 8.52 | 99.5 | 7.31
26 | O=S(=O)(c1ccc(F)cc1F)n1cc(C2=CCCNC2)c2ccccc21 |  |  | 7.89 |  | 
27 | O=S(=O)(c1ccccc1)n1cc(C2CCCNC2)c2ccccc21 (racemic) [listing 1 of 2 here] | 100 |  |  |  | 
28 | CN1CCC[C@H]1Cc1cn(S(=O)(=O)c2ccc(N)cc2)c2ccccc12 |  |  | 8.52 | 100 | 7.61

Row | Compound | Emax [2] [%] | pEC50 [3] | pKi [1] | Imax [4] [%] | pIC50 [5]
29 | CN1CCC(c2cn(S(=O)(=O)c3ccc(Cl)c(Cl)c3)c3ccccc23)C1 (stereo not given) |  |  |  | 100 | 6.97
30 | O=S(=O)(c1ccc(F)c(F)c1)n1cc(C2=CCCNC2)c2ccccc21 |  |  | 7.59 |  | 
31 | O=S(=O)(c1ccccc1)n1cc(C2CCCNC2)c2ccccc21 (stereo in doubt) [listing 1 of 2 here] | 100 |  |  |  | 
32 | COc1ccc(S(=O)(=O)n2cc(C[C@@H]3CCCN3C)c3ccccc32)cc1 |  |  | 7.71 |  | 
33 | O=S(=O)(c1ccc(Cl)cc1)n1cc(C[C@@H]2CCCN2)c2ccccc21 |  |  | 7.31 |  | 
34 | O=S(=O)(c1cccc(Cl)c1)n1cc(C[C@@H]2CCCN2)c2ccccc21 |  |  | 7.66 |  | 
35 | CN1CCC(c2cn(S(=O)(=O)c3ccc(Cl)cc3)c3ccccc23)C1 (stereo not given) |  |  |  | 86.5 | 7.07
36 | Cc1nc(N)sc1S(=O)(=O)n1cc(C2CCN(Cc3ccccc3)C2)c2ccccc21 (stereo not given) |  |  |  | 97 | 6.96
37 | CN1CCC(c2cn(S(=O)(=O)c3ccc(I)cc3)c3ccccc23)C1 (stereo not given) |  |  |  | 93.5 | 7.36
38 | O=S(=O)(c1ccccc1Cl)n1cc(C2=CCCNC2)c2ccccc21 |  |  | 7.89 |  | 
39 | CN1CCC[C@@H]1Cc1cn(S(=O)(=O)c2ccccc2)c2ccccc12 |  |  | 8.10 | 75 | 9.22
40 | Cc1c(S(=O)(=O)n2cc(C[C@@H]3CCCN3C)c3ccccc32)sc2ccc(Cl)cc12 |  |  | 7.96 | 87.5 | 7.96
41 | O=S(=O)(c1cccc(C(F)(F)F)c1)n1cc(C2=CCCNC2)c2ccccc21 |  |  | 7.35 |  | 
42 | O=S(=O)(c1ccc(Cl)s1)n1cc(C[C@@H]2CCCN2)c2ccccc21 |  |  | 7.60 |  | 
43 | CN1CCC[C@@H]1Cc1cn(S(=O)(=O)c2ccc(Br)s2)c2ccccc12 | 76.5 | 6.99 | 8.40 |  | 
44 | O=S(=O)(c1ccc(Cl)c(Cl)c1)n1cc(C2CCN(Cc3ccccc3)C2)c2ccccc21 (stereo not given) |  |  |  | 63 | 7.21
45 | Nc1ccc(S(=O)(=O)n2c3c(c4ccccc42)CCNC3)cc1 |  |  | 6.94 |  | 
46 | O=S(=O)(c1ccccc1)n1cc(C2CCCNC2)c2ccccc21 (racemic) [listing 2 of 2 here] |  | 7.62 |  |  | 
47 | O=S(=O)(c1ccccc1)n1cc(C2CCCNC2)c2ccccc21 (single isomer, unassigned; enantiomer 1) [listing 1 of 2 here] |  |  | 8.52 |  | 
48 | O=S(=O)(c1ccc(Cl)cc1)n1cc(C2=CCCNC2)c2ccccc21 |  |  | 7.66 |  | 
49 | COc1ccc(S(=O)(=O)n2cc(C3CCN(C)C3)c3ccccc32)cc1OC (stereo not given) |  |  |  | 100 | 7.01
50 | Nc1ccc(S(=O)(=O)n2cc(C[C@@H]3CCCN3)c3ccccc32)cc1 |  |  | 8.15 | 72.9 | 8.12
51 | Cc1ccc(S(=O)(=O)n2c3c(c4ccccc42)CCNC3)cc1 |  |  | 6.57 |  | 

Row | Compound | Emax [2] [%] | pEC50 [3] | pKi [1] | Imax [4] [%] | pIC50 [5]
52 | O=S(=O)(c1ccc(Cl)c(Cl)c1)n1cc(C[C@@H]2CCCN2)c2ccccc21 |  |  | 7.31 |  | 
53 | CN1CCC(c2cn(S(=O)(=O)c3ccc(N)cc3)c3ccccc23)C1 (stereo not given) |  |  |  | 89.5 | 7.81
54 | O=S(=O)(c1cccc(Cl)c1)n1c2c(c3ccccc31)CCNC2 |  |  | 7.38 |  | 
55 | CN1CCC[C@H]1Cc1cn(S(=O)(=O)c2ccccc2)c2ccccc12 |  |  | 8.30 | 87 | 7.09
56 | O=S(=O)(c1ccccc1C(F)(F)F)n1cc(C2=CCCNC2)c2ccccc21 |  |  | 7.66 |  | 
57 | O=S(=O)(c1ccc(I)cc1)n1cc(C[C@@H]2CCCN2)c2ccccc21 |  |  | 7.47 |  | 
58 | O=S(=O)(c1ccccc1Br)n1cc(C[C@@H]2CCCN2)c2ccccc21 |  |  | 7.37 |  | 
59 | Cc1nc(C)c(S(=O)(=O)n2cc(C3=CCCNC3)c3ccccc32)o1 |  |  | 7.24 |  | 
60 | COc1ccc(S(=O)(=O)n2cc(C[C@@H]3CCCN3)c3ccccc32)cc1OC |  |  | 7.64 |  | 
61 | O=S(=O)(c1ccccc1)n1cc(C[C@@H]2CCCN2)c2ccccc21 |  |  | 7.56 |  | 
62 | O=S(=O)(c1ccc(Br)s1)n1cc(C[C@@H]2CCCN2)c2ccccc21 |  |  | 7.70 |  | 
63 | O=S(=O)(c1ccccc1)n1cc(C2CCCNC2)c2ccccc21 (stereo in doubt) [listing 2 of 2 here] |  | 7.44 | 9.00 |  | 
64 | O=S(=O)(c1ccc(Cl)c(Cl)c1)n1cc(C2=CCCNC2)c2ccccc21 |  |  | 7.32 |  | 
65 | CN1CCC(c2cn(S(=O)(=O)c3ccc(F)cc3)c3ccccc23)C1 (stereo not given) |  |  |  | 83.5 | 7.28
66 | O=S(=O)(c1ccc(Br)s1)n1cc(C2CCN(Cc3ccccc3)C2)c2ccccc21 (stereo not given) |  |  |  | 69 | 6.96
67 | CN1CCC(c2cn(S(=O)(=O)c3ccccc3Br)c3ccccc23)C1 (stereo not given) |  |  |  | 98.5 | 7.27
68 | O=S(=O)(c1ccccc1)n1cc(C2CCCNC2)c2ccccc21 (single isomer, unassigned; enantiomer 1) [listing 2 of 2 here] | 0 |  |  |  | 
69 | Nc1ccc(S(=O)(=O)n2cc(C3CCN(Cc4ccccc4)C3)c3ccccc32)cc1 (stereo not given) |  |  |  | 97 | 7.60
70 | CN1CCC[C@H]1Cc1cn(S(=O)(=O)c2ccc(Cl)cc2)c2ccccc12 |  |  | 8.15 | 86 | 8.09
71 | COc1ccc(S(=O)(=O)n2cc(C3CCCNC3)c3ccccc32)cc1 (stereo not given) |  |  |  | 65.5 | 8.14
72 | COc1ccc(S(=O)(=O)n2cc(C[C@@H]3CCCN3)c3ccccc32)cc1 |  |  | 7.40 |  | 
73 | CN1CCC[C@H]1Cc1cn(S(=O)(=O)c2ccc(Cl)s2)c2ccccc12 |  |  | 8.40 | 99 | 9.00
